In patent US20060229265A1, “Nicotinamide riboside and analogues thereof” (priority 2005, published 2006):

Tests used:
[1] = tested on: retinal ganglion cells (RGCs); test: Neuroprotection of retinal ganglion cells in EAE mice with acute optic neuritis (intravitreal treatment); settings: for RGC numbers (FG-labeled cells in 12 standardized fields per retina): EAE eyes with optic neuritis; for Neuroprotection for RGCs during acute optic neuritis in EAE: dose-dependent manner
Protocol: Study outline: The neuroprotective effects of nicotinamide riboside were examined in EAE mice with optic neuritis. […] To induce EAE, mice were immunized several days later with 300 μg PLP emulsified in complete Freund's adjuvant (CFA), and control mice (without EAE) were mock-immunized with phosphate buffered saline (PBS) in CFA. All mice received 200 ng intraperitoneal pertussis toxin (PT) on the day of immunization (day 0) and again on day 2.
Eyes were treated with nicotinamide riboside by intravitreal (ivt) injections with a volume of 0.8 μl/injection of a stock solution of either 0.1 M or 0.4 M nicotinamide riboside in PBS (Groups 2, 4 and 5). […] Treament with nicotinamide riboside, as well as PBS control injections, were given ivt on days 0, 4, 7 and 11. Mice were scored daily for clinical EAE, and were sacrificed on day 14 by overdose with ketamine and xylazine.
Retinas were dissected and whole-mounted for fluorescent microscopy. RGC numbers were quantified by counting FG-labeled cells in 12 standardized fields in each retina. Optic nerves were dissected and processed for histology. Cut sections stained by H & E were evaluated for the presence of inflammatory cells to determine acute optic neuritis. RGCs were compared between PBS-treated and nicotinamide riboside-treated eyes with optic neuritis to determine whether nicotinamide riboside prevents loss of neurons.

[2] = Stability in rat plasma / on extraction with organic solvent (LC/MS); type: in vitro ADME
Protocol: Duplicate sets of standard curves of triacetoxy nicotinamide riboside, NMN and nicotinamide riboside in rat plasma were extracted by protein precipitation. Due to sensitivities of compounds to the organic solvent used in extraction, two separate extractions were performed on the standards. The standards were extracted with ACN to obtain triacetoxy nicotinamide riboside and nicotinamide riboside standards, and extracted with MeOH to obtain NMN standards. The standards were analyzed through LC/MS. Due to varying chromatographic properties of the compounds, two separate methods and columns were employed to resolve the compounds. The triacetoxy nicotinamide riboside standards (ACN extraction) were run on an YMC ODS-AQ 2.0×100 mm column, while the NMN standards (MeOH extraction) and nicotinamide riboside standards (ACN extraction) were run on an YMC ODS-AQ 4.5×150 mm column. The resolution procedures were as follows: • 50 uL aliquots of each sample were taken in replicates of four. • Added 200 uL of organic solvent to each sample. • Vortexed samples and centrifuged at 5000 g's for 10 minutes. • Transferred supernatant to new tubes (200 uL), and dried down in Speed-Vac. • Reconstituted samples in 200 uL 95:5 ddH2O:ACN, and vortexed 10 minutes on platform vortexer at setting 10. […] Though the curves may be quantitated separately, they cannot be quantitated together. […]

Swiss Albino mice = test: 7 day repeat dose tolerance study in mice; type: in vivo; settings: 1000, 500 or 300 mg/kg in PBS, IP, 7 consecutive days; male mice
Protocol: Groups of male Swiss Albino mice (6 mice per dosing group) were dosed with either NMN dissolved in phosphate buffered saline (PBS) at 1000 mg/kg, 500 mg/kg, or 300 mg/kg or vehicle control (PBS) via intraperitoneal injection (IP) for 7 consecutive days. The evaluation criteria used to assess toxicity included daily clinical observations and weight gain.

## NC(=O)c1ccc[n+]([C@@H]2O[C@H](CO)[C@@H](O)[C@H]2O)c1 [nicotinamide riboside]
[1]; 100 mM nicotinamide riboside stock, 0.8 μl ivt on days 0, 4, 7, 11 (estimated ocular 19 mM), day 14, Group 4, PBS-treated 268±59, control 691±81
  RGC numbers (FG-labeled cells in 12 standardized fields per retina): 505±36 RGCs
[1]; 400 mM nicotinamide riboside stock, 0.8 μl ivt on days 0, 4, 7, 11 (estimated ocular 76 mM), day 14, Group 5, p<0.01
  RGC numbers (FG-labeled cells in 12 standardized fields per retina): 710±67 RGCs
[1]; EAE mice, ivt treatment
  Incidence of optic neuritis, treated mice vs. controls: did not differ
  Inflammatory cell infiltration (optic nerve): does not prevent
[1]; EAE mice, ivt treatment, scored daily
  Clinical EAE, treated mice vs. controls: did not differ
[1]
  Neuroprotection for RGCs during acute optic neuritis in EAE: effective
[1]; listed as Nicotinamide riboside
  Neuroprotection for RGCs during acute optic neuritis in EAE: neuroprotective
[1]; mouse, in vivo
  Toxicity to RGCs: not toxic
[1]; non-EAE eyes, ivt treatment (Group 2) vs. untreated control (Group 1), day 14
  Difference in RGC numbers between control eyes and non-EAE eyes treated: no difference

## CC(=O)OCC1OC([n+]2cccc(C(N)=O)c2)C(OC(C)=O)C1OC(C)=O (stereo not shown) [Triacetoxy nicotinamide riboside, triacetoxy nicotinamide riboside]
[2]; extracted with ACN, compared with MeOH
  Hydrolysis on extraction from rat plasma: less strongly so
[2]; extracted with MeOH
  Hydrolysis on extraction from rat plasma: hydrolyzes into nicotinamide riboside

## NC(=O)c1ccc[n+]([C@@H]2O[C@H](COP(=O)([O-])O)[C@@H](O)[C@H]2O)c1 [NMN, nicotinamide mononucleotide]
Swiss Albino mice
  Clinical signs of toxicity: None of the animals showed clinical signs of toxicity
  Weight gain by study termination: All animals in the study gained weight
